Measured values published in patent US20190353647A1, “NOVEL REAL-TIME MULTIPLEXED, MULTI-COLOR BIOLUMINESCENCE RESONANCE ENERGY TRANSFER ASSAY, APPARATUS, AND USES THEREOF” (Universite de Bordeaux, priority 2016, published 2019).

Biological target: T1, TRPV1 (Homo sapiens, UniProt Q8NER1)
T1 construct: expressed in transfected cells; host or cells: HEK293T
Assay: Intermolecular BRET assay, TRPV1-Luc/YFP-CaM in HEK293T cells
Type: cell-based
Conditions: TRPV1-Luc/YFP-CaM
Source text: In order to generate the BRET constructs, super Yellow Fluorescent Protein 2 and Renilla Luciferase II were used to improve the brightness of the assay. They were referred as YFP and Luc for short in the rest of the manuscript. The cDNA of Luc and YFP were first cloned together using a three-piece ligation in the BamHI/XhoI site of pcDNA3.1(+) (Invitrogen, Carlsbad, Calif., USA), yielding two expression vectors pcDNA3.1 YFP-Luc where YFP was cloned in-fusion at the N-terminal of Luc, and pcDNA3.1 Luc-YFP where Luc was cloned in-fusion at the N-terminal of YFP. Both YFP and Luc were amplified by PCR from the pcDNA3-YFP-EPAC-Luc vector. Luc was cloned either at the N-terminal of YFP as a HindIII-EcoRI fragment (primers used: “Luc_HindIII_ATGN-term sense” and “Luc_no Stop_EcoRI_N-term antisense”) or at the COOH-terminal of YFP as an EcoRI-XhoI fragment (primer used: “Luc_EcoRI_ATG_C-term sense” and “Luc_XhoI_Stop_C-term antisense”). In parallel, YFP was cloned either at the N-terminal of Luc as a HindIII-EcoRI fragment (primers used: “YFP_HindIII_ATG_N-term sense” and “YFP_no Stop_EcoRI_N-term antisense”) or at the COOH-terminal of Luc as a EcoRI-XhoI fragment (primer used: “YFP_EcoRI_ATG_C-term sense” and “YFP_XhoI_Stop_C-term antisense”). The sequence joining Luc and YFP sequence encoded […] (SEQ ID NO: 18) as a linker, and contained an AgeI restriction site. The YFP-hTRPV1-Luc expression vector was obtained by subcloning the human TRPV1 cDNA from the pDONR201-hTRPV1 vector (Harvard Medical School PlasmID Repository, clone HsCD00081472) as an EcoRI PCR fragment in the EcoRI site of the vector pcDNA3.1 YFP-Luc (primer used: “hTRPV1_EcoRI_Fus_Sense” and “hTRPV1_EcoRI_Fus_antisense”). The hTRPV1-Luc expression vector was obtained by subcloning the cDNA of hTRPV1 as a HindIII-EcoRI fragment in place of the YFP in the HindIII-EcoRI site of the pcDNA3.1 YFP-Luc vector (primer used: “hTRPV1_HindIII_ATG_Sense” and “hTRPV1_EcoRI_Fus_antisense”). The Luc-hTRPV3 expression vector was obtained by subcloning the cDNA of hTRPV3 (Harvard Medical School PlasmID Repository, clone HsCD00341603) as a AgeI-XhoI fragment in place of the YFP in the AgeI-XhoI sites of the pcDNA3.1 Luc-YFP vector (primer used: “hTRPV3_AgeI_ATG_Sense” and “hTRPV3_Stop_XhoI_antisense”). The hTRPV4-Luc expression vector was obtained by subcloning the cDNA of hTRPV4 as a BamHI-AgeI fragment in place of the YFP in the BamHI-AgeI site of the pcDNA3.1 YFP-Luc vector (primer used: “hTRPV4_BamHI_ATG_Sense” and hTRPV4_AgeI_Fus_antisense”). In each case, the sequence joining the cDNA of interest and either Luc or YFP sequence encoded […] (SEQ ID NO: 18) as a linker.
The cDNA of mAmetrine (Plasmid #54660) and LssmOrange (Plasmid #37130) were obtained from AddGene plasmid repository. The cDNA of aquamarine, mAmetrine and LssmOrange were all subcloned as a HindIII-EcoRI fragment in place of the YFP in the HindIII-EcoRI site of the pcDNA3.1 YFP-Luc vector (primer used: “YFP_HindIII_ATG_N-term sense” and “YFP_no Stop_EcoRI_N-term antisense”) to yield pcDNA3.1 FP-Luc expression vectors (“FP” being any fluorescent protein between aquamarine, mAmetrine and LssmOrange). […] A similar strategy was used to obtain the FP-CaM expression vector using the pcDNA3.1 FP-Luc expression vector instead of the pcDNA3.1 YFP-Luc.
HEK293T cells were maintained in Dulbecco's modified Eagle's medium-high Glucose (DMEM) (D6429, Sigma) supplemented with 10% fetal bovine serum, 100 units mL-1 penicillin and streptomycin. Twenty-four hours before transfection, cells were seeded at a density of 500,000 cells in 6-well dishes. Transient transfections were performed using polyethylenimine (PEI, linear, Mr 25,000; catalogue number 23966 Polysciences, Inc., Warrington, Pa., USA) with a PEI:DNA ratio of 4:1. Usually, 0.1-0.25 μg of the donor constructions and 1.75-1.9 μg of the acceptors constructions were transfected for the BRET measurement.

T1 sequence (Q8NER1 whole entry): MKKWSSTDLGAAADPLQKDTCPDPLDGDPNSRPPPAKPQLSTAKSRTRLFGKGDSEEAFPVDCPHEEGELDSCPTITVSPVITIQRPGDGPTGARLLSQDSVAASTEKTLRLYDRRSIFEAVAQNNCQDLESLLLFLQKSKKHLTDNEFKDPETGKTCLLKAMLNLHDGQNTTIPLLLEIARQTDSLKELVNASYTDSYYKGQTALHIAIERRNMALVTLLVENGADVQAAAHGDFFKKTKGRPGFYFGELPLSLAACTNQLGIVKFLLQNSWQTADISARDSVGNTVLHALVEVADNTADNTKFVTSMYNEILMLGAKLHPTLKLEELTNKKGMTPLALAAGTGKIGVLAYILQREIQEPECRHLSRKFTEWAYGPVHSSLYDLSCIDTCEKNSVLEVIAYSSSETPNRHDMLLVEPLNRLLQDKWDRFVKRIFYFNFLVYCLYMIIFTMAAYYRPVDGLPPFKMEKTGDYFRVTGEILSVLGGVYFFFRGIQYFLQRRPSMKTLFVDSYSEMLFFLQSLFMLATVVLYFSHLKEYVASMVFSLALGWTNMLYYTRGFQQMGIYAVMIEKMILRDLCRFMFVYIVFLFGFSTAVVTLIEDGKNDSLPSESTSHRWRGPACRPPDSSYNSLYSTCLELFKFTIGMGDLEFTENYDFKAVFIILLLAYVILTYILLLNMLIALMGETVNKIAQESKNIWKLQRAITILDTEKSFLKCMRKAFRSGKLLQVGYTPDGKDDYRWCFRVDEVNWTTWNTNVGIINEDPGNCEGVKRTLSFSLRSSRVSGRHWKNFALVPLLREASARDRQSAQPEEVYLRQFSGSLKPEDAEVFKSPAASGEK

| SMILES | Change of basal BRET signal | Effect on CAPS-induced BRET increase (intermolecular test) |
| --- | --- | --- |
| C[C@H](CCC(=O)O)C[C@H](C)C[C@H](C)C(=O)/C=C(\O)[C@H](C)C[C@H](C)C/C=C/[C@@H](C)[C@@H](O)[C@@H](C)[C@@H](O)C[C@@H]1CC[C@@](C)([C@H]2CC[C@@](C)([C@@H](C)O)O2)O1 [ionomycin] | no effect |  |
| CC(=O)OCOC(=O)CN(CC(=O)OCOC(C)=O)c1ccccc1OCCOc1ccccc1N(CC(=O)OCOC(C)=O)CC(=O)OCOC(C)=O [BAPTA-AM] | severely diminished | abolished |
